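Tested at 5 concentrations; 48 h exposure; 96-well plates; endpoints linearly interpolated, else capped at highest concentration. At the TGI there is no net growth.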
Experiments:
Test in all cases: NCI tumour cell line growth inhibition, 48 h
[1] = tested on: A498 renal
[2] = tested on: A549 NSCLC
[3] = tested on: CAKI-1 renal
[4] = tested on: CCRF-CEM leukemia
[5] = tested on: COLO 205 colon
[6] = tested on: DLD-1 colon
[7] = tested on: DMS 114 small cell lung
[8] = tested on: DMS 273 small cell lung
[9] = tested on: EKVX NSCLC
[10] = tested on: HCC-2998 colon
[11] = tested on: HCT-116 colon
[12] = tested on: HCT-15 colon
[13] = tested on: HL-60(TB) leukemia
[14] = tested on: HOP-18 NSCLC
[15] = tested on: HOP-62 NSCLC
[16] = tested on: HOP-92 NSCLC
[17] = tested on: HT29 colon
[18] = tested on: IGROV1 ovarian
[19] = tested on: K-562 leukemia
[20] = tested on: KM12 colon
[21] = tested on: M19-MEL melanoma
[22] = tested on: MALME-3M melanoma
[23] = tested on: MCF7 breast
[24] = tested on: NCI-H226 lung
[25] = tested on: NCI-H23 lung
[26] = tested on: NCI-H460 lung
[27] = tested on: NCI-H522 lung
[28] = tested on: NCI/ADR-RES ovarian
[29] = tested on: OVCAR-3 ovarian
[30] = tested on: OVCAR-4 ovarian
[31] = tested on: OVCAR-5 ovarian
[32] = tested on: OVCAR-8 ovarian
[33] = tested on: P388 leukemia
[34] = tested on: P388/ADR leukemia
[35] = tested on: RPMI-8226 leukemia
[36] = tested on: RXF 393 renal
[37] = tested on: SF-268 CNS
[38] = tested on: SF-295 CNS
[39] = tested on: SF-539 CNS
[40] = tested on: SK-MEL-2 melanoma
[41] = tested on: SK-MEL-28 melanoma
[42] = tested on: SK-MEL-5 melanoma
[43] = tested on: SK-OV-3 ovarian
[44] = tested on: SN12K1 renal
[45] = tested on: SNB-19 CNS
[46] = tested on: SNB-78 CNS
[47] = tested on: U251 CNS
[48] = tested on: UACC-257 melanoma
[49] = tested on: UACC-62 melanoma
[50] = tested on: UO-31 renal
[51] = tested on: XF 498 CNS
[52] = tested on: 786-0 renal
[53] = tested on: ACHN renal
[54] = tested on: KM20L2 colon
[55] = tested on: LXFL 529 NSCLC
[56] = tested on: M14 melanoma
[57] = tested on: MOLT-4 leukemia
[58] = tested on: RXF-631 renal
[59] = tested on: SN12C renal
[60] = tested on: SNB-75 CNS
[61] = tested on: SW-620 colon
[62] = tested on: TK-10 renal
[63] = tested on: LOX IMVI melanoma
[64] = tested on: SR leukemia

SMILES: COc1cc(C2c3cc4c(cc3[C@@H](Nc3cnc5ccccc5c3)C3COC(=O)[C@H]23)OCO4)cc(OC)c1O (stereo partly specified)
- TGI [1]: 1.38 µM
- TGI [2]: 0.789 µM
- TGI [3]: 1.78 µM
- TGI [4]: 0.463 µM
- TGI [5]: 3.39 µM
- TGI [6]: 3.69 µM
- TGI [7]: 1.82 µM
- TGI [8]: 1.34 µM
- TGI [9]: 9.09 µM
- TGI [10]: 2.24 µM
- TGI [11]: 2.26 µM
- TGI [12]: 1.31 µM
- TGI [13]: 0.377 µM
- TGI [14]: 2.65 µM
- TGI [15]: 0.481 µM
- TGI [16]: 2.81 µM
- TGI [17]: 4.2 µM
- TGI [18]: 10.4 µM
- TGI [19]: 7.33 µM
- TGI [20]: 2.67 µM
- TGI [21]: 3.28 µM
- TGI [22]: 2.43 µM
- TGI [23]: > 31.7 µM
- TGI [24]: 1.23 µM
- TGI [25]: 2.02 µM
- TGI [26]: 0.397 µM
- TGI [27]: 3.19 µM
- TGI [28]: 7.93 µM
- TGI [29]: 3.9 µM
- TGI [30]: 4.43 µM
- TGI [31]: 2.25 µM
- TGI [32]: 5 µM
- TGI [33]: 0.374 µM
- TGI [34]: 1.36 µM
- TGI [35]: 1.9 µM
- TGI [36]: 3 µM
- TGI [37]: 3.9 µM
- TGI [38]: 1.14 µM
- TGI [39]: 0.82 µM
- TGI [40]: 3.58 µM
- TGI [41]: 3.85 µM
- TGI [42]: 1.78 µM
- TGI [43]: 6.18 µM
- TGI [44]: 2.08 µM
- TGI [45]: 9.53 µM
- TGI [46]: > 100 µM
- TGI [47]: 0.6 µM
- TGI [48]: 6.64 µM
- TGI [49]: 2.06 µM
- TGI [50]: 3.3 µM
- TGI [51]: 4.66 µM

SMILES: C=CCN=C1NC(=O)C(CC(=O)Nc2ccc([N+](=O)[O-])cc2[N+](=O)[O-])S1 (stereo unspecified)
- TGI [52]: > 100 µM
- TGI [1]: > 100 µM
- TGI [2]: > 100 µM
- TGI [53]: > 100 µM
- TGI [3]: > 100 µM
- TGI [4]: > 100 µM
- TGI [5]: > 100 µM
- TGI [6]: > 100 µM
- TGI [7]: > 100 µM
- TGI [8]: > 100 µM
- TGI [9]: > 100 µM
- TGI [10]: > 100 µM
- TGI [11]: > 100 µM
- TGI [12]: > 100 µM
- TGI [13]: > 100 µM
- TGI [14]: > 100 µM
- TGI [15]: > 100 µM
- TGI [16]: > 100 µM
- TGI [17]: > 100 µM
- TGI [18]: > 100 µM
- TGI [20]: > 100 µM
- TGI [54]: > 100 µM
- TGI [55]: > 100 µM
- TGI [56]: > 100 µM
- TGI [21]: > 100 µM
- TGI [22]: > 100 µM
- TGI [57]: > 100 µM
- TGI [24]: > 100 µM
- TGI [25]: > 100 µM
- TGI [26]: > 100 µM
- TGI [27]: > 100 µM
- TGI [29]: > 100 µM
- TGI [30]: > 100 µM
- TGI [31]: > 100 µM
- TGI [32]: > 100 µM
- TGI [36]: > 100 µM
- TGI [58]: > 100 µM
- TGI [37]: > 100 µM
- TGI [38]: > 100 µM
- TGI [39]: > 100 µM
- TGI [40]: > 100 µM
- TGI [41]: > 100 µM
- TGI [42]: > 100 µM
- TGI [43]: > 100 µM
- TGI [59]: > 100 µM
- TGI [45]: > 100 µM
- TGI [60]: > 100 µM
- TGI [46]: > 100 µM
- TGI [61]: > 100 µM
- TGI [62]: > 100 µM
- TGI [47]: > 100 µM
- TGI [48]: > 100 µM
- TGI [49]: > 100 µM
- TGI [50]: > 100 µM
- TGI [51]: > 100 µM

SMILES: O=C1c2ccccc2C(=O)N1CCN(CCN1C(=O)c2ccccc2C1=O)Cc1ccccc1
- TGI [52]: > 100 µM
- TGI [1]: > 100 µM
- TGI [2]: > 100 µM
- TGI [53]: > 100 µM
- TGI [3]: > 100 µM
- TGI [4]: > 100 µM
- TGI [5]: > 100 µM
- TGI [6]: > 100 µM
- TGI [7]: > 100 µM
- TGI [8]: > 100 µM
- TGI [9]: > 100 µM
- TGI [11]: > 100 µM
- TGI [12]: > 100 µM
- TGI [13]: > 100 µM
- TGI [15]: > 100 µM
- TGI [16]: > 100 µM
- TGI [19]: > 100 µM
- TGI [20]: > 100 µM
- TGI [54]: > 100 µM
- TGI [63]: > 100 µM
- TGI [55]: > 100 µM
- TGI [56]: > 100 µM
- TGI [21]: > 100 µM
- TGI [57]: > 100 µM
- TGI [25]: > 100 µM
- TGI [26]: > 100 µM
- TGI [27]: > 100 µM
- TGI [29]: > 100 µM
- TGI [30]: > 100 µM
- TGI [32]: > 100 µM
- TGI [35]: > 100 µM
- TGI [36]: > 100 µM
- TGI [37]: > 100 µM
- TGI [38]: > 100 µM
- TGI [40]: > 100 µM
- TGI [41]: > 100 µM
- TGI [42]: > 100 µM
- TGI [43]: > 100 µM
- TGI [59]: > 100 µM
- TGI [45]: > 100 µM
- TGI [46]: > 100 µM
- TGI [64]: > 100 µM
- TGI [61]: > 100 µM
- TGI [62]: > 100 µM
- TGI [47]: > 100 µM
- TGI [48]: > 100 µM
- TGI [49]: > 100 µM
- TGI [50]: > 100 µM
- TGI [51]: > 100 µM

SMILES: CN(C)c1ccc(-c2nc(N)nc3c2CCCC3)cc1
- TGI [52]: > 100 µM
- TGI [1]: > 100 µM
- TGI [2]: > 100 µM
- TGI [53]: 76.9 µM
- TGI [3]: > 100 µM
- TGI [4]: > 100 µM
- TGI [5]: > 100 µM
- TGI [6]: > 100 µM
- TGI [7]: > 100 µM
- TGI [8]: > 100 µM
- TGI [9]: 98.6 µM
- TGI [10]: > 100 µM
- TGI [11]: > 100 µM
- TGI [13]: > 100 µM
- TGI [15]: > 100 µM
- TGI [18]: > 100 µM
- TGI [19]: > 100 µM
- TGI [20]: > 100 µM
- TGI [54]: > 100 µM
- TGI [63]: > 100 µM
- TGI [55]: > 100 µM
- TGI [56]: > 100 µM
- TGI [21]: > 100 µM
- TGI [22]: > 100 µM
- TGI [57]: > 100 µM
- TGI [24]: > 100 µM
- TGI [25]: > 100 µM
- TGI [26]: > 100 µM
- TGI [27]: 98.1 µM
- TGI [29]: 96.7 µM
- TGI [31]: > 100 µM
- TGI [32]: > 100 µM
- TGI [35]: > 100 µM
- TGI [36]: > 100 µM
- TGI [37]: > 100 µM
- TGI [38]: > 100 µM
- TGI [39]: > 100 µM
- TGI [40]: > 100 µM
- TGI [41]: > 100 µM
- TGI [42]: > 100 µM
- TGI [43]: > 100 µM
- TGI [59]: > 100 µM
- TGI [45]: > 100 µM
- TGI [60]: > 100 µM
- TGI [46]: > 100 µM
- TGI [61]: > 100 µM
- TGI [62]: > 100 µM
- TGI [47]: > 100 µM
- TGI [49]: > 100 µM
- TGI [50]: > 100 µM
- TGI [51]: 60.5 µM

Reference: PubChem BioAssay (NCI)
